IC50 data for 13 compounds are collected here from patent publication US20230365554A1, “SUBSTITUTED PYRROLO-PYRIDINONE DERIVATIVES AND THERAPEUTIC USES THEREOF” (The Broad Institute, Inc., priority 2020, published 2023).

One test has as its target human CSNK1A1 (Homo sapiens (Human), UniProt P48729). Nature of the test: CSNK1A1 Assay 2 (ADP-Glo, 1 μM ATP). In kind it is biochemical. The settings on record: median, Table 2, read-out: CSNK1A1 Assay 2 IC50 [mol/l] (median). The procedure:
CSNK1A1-inhibitory activity of compounds of the present invention in presence of 1 μM adenosine-tri-phosphate (ATP) was quantified employing the CSNK1A1 assay as described in the following paragraphs. In essence, the enzyme activity is measured by quantification of the adenosine-di-phosphate (ADP), which is generated as a co-product of the enzyme reaction, via the “ADP-Glo™ Kinase Assay” kit from the company Promega. This detection system works as follows: In a first step the ATP not consumed in the kinase reaction is quantitatively converted to cAMP employing an adenylate cyclase (“ADP-Glo-reagent”), then the adenylate cyclase is stopped and the ADP generated in the kinase reaction converted to ATP which generates in a luciferase-based reaction a glow-luminescence signal (“Kinase Detection Reagent”).
Recombinant fusion protein of N-terminal Glutathion-S-Transferase (GST) and full-length human CSNK1A1, expressed by baculovirus infected insect cells and purified via Glutathion affinity chromatography, was purchased from Life Technologies (product no. PV4174) and used as enzyme. As substrate for the kinase reaction the biotinylated peptide biotin-Ahx-KRRRAL-pS-VASLPGL (C-terminus in amide form) was used which can be purchased e.g. from the company Biosyntan (Berlin-Buch, Germany).
For the assay 50 nl of a 100 fold concentrated solution of the test compound in DMSO was pipetted into a white 1536-well microtiter plate (Greiner Bio-One, Frickenhausen, Germany), 2 μL of a solution of CSNK1A1 in aqueous assay buffer [50 mM HEPES pH 7.5, 10% (v/v) glycerol, 10 mM MgCl2, 50 mM NaCl, 1 mM dithiothreitol, 0.01% (w/v) bovine serum albumin, 0.01% (v/v) Triton X-100] were added and the mixture was incubated for 15 min at 22° C. to allow pre-binding of the test compounds to the enzyme before the start of the kinase reaction. Then the kinase reaction was started by the addition of 3 μL of a solution of ATP (1.67 μM=>final conc. in the 5 μL assay volume is 1 μM) and peptide substrate (50 μM=>final conc. in the 5 μL assay volume is 30 μM) in assay buffer and the resulting mixture was incubated for a reaction time of 30 min at 22° C. The concentration of CSNK1A1 was adjusted depending of the activity of the enzyme lot and was chosen appropriate to have the assay in the linear range, a typical concentrations are about 0.0375 ng/μL. The reaction was stopped by the addition of 2.5 μL of “ADP-Glo-reagent” (1:1.5 fold diluted with water) and the resulting mixture was incubated at 22° C. for 1 h to convert the ATP not consumed in the kinase reaction completely […]. Subsequently 2.5 μL of the “kinase detection reagent” (1.2 fold more concentrated than recommended by the producer) were added, the resulting mixture was incubated at 22° C. for 1 h and then the luminescence measured with a suitable measurement instrument (e.g. Viewlux™ from Perkin-Elmer). The amount of emitted light was taken as a measure for the amount of ADP generated and thereby for the activity of the CSNK1A1.
The data were normalised (enzyme reaction without inhibitor=0% inhibition, all other assay components but no enzyme=100% inhibition).
Background: ADP-Glo turns the ADP formed in a reaction into a luminescent signal.

The target in test [1] is wild-type Epidermal Growth Factor Receptor (EGFR) (Homo sapiens (Human), UniProt P00533). Nature of the test: WT-EGFR kinase assay (TR-FRET, 2 mM ATP). In kind it is biochemical. The note with it: median or individual measurements, Table 3, read-out: EGFR Wildtyp-2mM ATP IC50 [mol/l] (median). The text has this:
Inhibitory activity of compounds of the present invention against wild-type Epidermal Growth Factor Receptor (EGFR) was quantified employing the TR-FRET based EGFR assay as described in the following paragraphs.
Recombinant fusion protein of N-terminal Glutathion-S-Transferase (GST) and a fragment of human EGFR (amino acids R669 to A1210), expressed in Sf9 insect cells and purified via affinity chromatography using Glutathion Sepharose as described above, was used as kinase. As substrate for the kinase reaction the biotinylated peptide biotin-Ahx-AEEEEYFELVAKKK (C-terminus in amide form) was used which can be purchased e.g. form the company Biosynthan GmbH (Berlin-Buch, Germany).
For the assay 50 nl of a 100 fold concentrated solution of the test compound in DMSO was pipetted into either a black low volume 384 well microtiter plate or a black 1536 well microtiter plate (both Greiner Bio-One, Frickenhausen, Germany), 2 μL of a solution of EGFR in aqueous assay buffer [50 mM Hepes pH 7.0, 10 mM MgCl2, 1 mM dithiothreitol, 0.5 mM EGTA, 0.3 mM activated sodium ortho-vanadate, 0.005% (w/v) bovine serum albumin, 0.005% (v/v) Tween-20] were added and the mixture was incubated for 15 min at 22° C. to allow pre-binding of the test compounds to the enzyme before the start of the kinase reaction. Then the kinase reaction was started by the addition of 3 μL of a solution of adenosine-tri-phosphate (ATP, 3.33 mM=>final conc. in the 5 μL assay volume is 2 mM) and substrate (1.67 μM=>final conc. in the 5 μL assay volume is 1 μM) in assay buffer and the resulting mixture was incubated for a reaction time of 30 min at 22° C. The concentration of EGFR was adjusted depending of the activity of the enzyme lot and was chosen appropriate to have the assay in the linear range, typical concentration was 7.6 pg/μL. The reaction was stopped by the addition of 3 μL of a solution of HTRF detection reagents (83.3 nM streptavidine-XL665 [Cisbio Bioassays, Codolet, France] and 1.67 nM PT66-Tb-Cryptate, a terbium-cryptate labelled anti-phospho-tyrosine antibody from Cisbio Bioassays [instead of the PT66-Tb-cryptate PT66-Eu-Chelate from Perkin Elmer can also be used]) in an aqueous EDTA-solution (133.3 mM EDTA, 0.2% (w/v) bovine serum albumin in 50 mM HEPES pH 7.5).
The resulting mixture was incubated 1 h at 22° C. to allow the binding of the biotinylated phosphorylated peptide to the streptavidine-XL665 and the PT66-Tb-Cryptate. Subsequently the amount of phosphorylated substrate was evaluated by measurement of the resonance energy transfer from the PT66-Tb-Cryptate to the streptavidine-XL665. Therefore, the fluorescence emissions at 620 nm and 665 nm after excitation at 337 nm were measured in a HTRF reader, e.g. a Pherastar (BMG Labtechnologies, Offenburg, Germany) or a Viewlux (Perkin-Elmer). The ratio of the emissions at 665 nm and at […] was taken as the measure for the amount of phosphorylated substrate. The data were normalised (enzyme reaction without inhibitor=0% inhibition, all other assay components but no enzyme=100% inhibition).
For orientation: Time-resolved FRET reads energy transfer from a long-lived donor to a nearby acceptor.

Where “and” joins values, the source holds several entries; their conditions need not be identical. Equal entries are not always repeated.

wild-type Epidermal Growth Factor Receptor (EGFR), sequence (P00533 669-1210): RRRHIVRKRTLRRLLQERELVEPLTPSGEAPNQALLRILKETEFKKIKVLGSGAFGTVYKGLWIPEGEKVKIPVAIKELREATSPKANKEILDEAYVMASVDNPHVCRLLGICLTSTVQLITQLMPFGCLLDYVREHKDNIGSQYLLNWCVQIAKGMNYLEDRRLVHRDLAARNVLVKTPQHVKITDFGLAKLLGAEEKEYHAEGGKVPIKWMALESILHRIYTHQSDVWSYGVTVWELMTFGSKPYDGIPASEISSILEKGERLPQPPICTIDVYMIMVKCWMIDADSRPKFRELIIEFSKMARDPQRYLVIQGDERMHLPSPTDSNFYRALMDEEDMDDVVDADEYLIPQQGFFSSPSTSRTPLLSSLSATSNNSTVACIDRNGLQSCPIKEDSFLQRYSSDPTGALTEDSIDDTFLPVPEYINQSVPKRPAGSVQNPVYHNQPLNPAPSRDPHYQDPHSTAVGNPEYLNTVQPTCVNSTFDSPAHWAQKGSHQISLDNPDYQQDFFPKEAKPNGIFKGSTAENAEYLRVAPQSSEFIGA
human CSNK1A1, sequence (P48729 whole entry): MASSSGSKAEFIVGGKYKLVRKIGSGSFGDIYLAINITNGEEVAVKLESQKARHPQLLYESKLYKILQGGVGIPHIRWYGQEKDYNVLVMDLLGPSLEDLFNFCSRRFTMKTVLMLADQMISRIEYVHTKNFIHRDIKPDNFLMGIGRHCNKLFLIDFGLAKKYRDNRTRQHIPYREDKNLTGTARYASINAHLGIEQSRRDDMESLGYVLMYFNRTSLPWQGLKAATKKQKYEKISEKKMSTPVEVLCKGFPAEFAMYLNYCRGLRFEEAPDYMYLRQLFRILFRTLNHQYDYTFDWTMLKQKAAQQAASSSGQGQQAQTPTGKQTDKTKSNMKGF

Consider `CC1CN(C)C(=O)c2c1[nH]c(-c1ccnc(NC(=O)C(C)c3ccc(F)cc3)c1)c2Nc1ccccc1` (racemic) [Example 9, N-{4-[(7RS)-3-anilino-5,7-dimethyl-4-oxo-4,5,6,7-tetrahydro-1H-pyrrolo[3,2-c]pyridin-2-yl]pyridin-2-yl}-2-(4-fluorophenyl)propanamide], for which the IC50 amounted to 0.0056 µM at human CSNK1A1 and 13 µM in test [1].
Consider `CN1CC(CC2CC2)c2[nH]c(-c3ccnc(NC(=O)Cc4ccc(F)cc4)c3)c(Nc3cscn3)c2C1=O` (single isomer, unassigned) [Example 51, N-{4-[(7R or S)-7-(cyclopropylmethyl)-5-methyl-4-oxo-3-(1,3-thiazol-4-ylamino)-4,5,6,7-tetrahydro-1H-pyrrolo[3,2-c]pyridin-2-yl]pyridin-2-yl}-2-(4-fluorophenyl)acetamide], for which the IC50 is 0.02 µM at human CSNK1A1; 17.2 µM and > 20 µM in test [1].
`CN1CC(CC2CC2)c2[nH]c(-c3ccnc(NC(=O)Cc4ccc(F)cc4)c3)c(Nc3ccccc3)c2C1=O` (single isomer, unassigned) [Example 19, N-{4-[3-anilino-7-(cyclopropylmethyl)-5-methyl-4-oxo-4,5,6,7-tetrahydro-1H-pyrrolo[3,2-c]pyridin-2-yl]pyridin-2-yl}-2-(4-fluorophenyl)acetamide]: the results for the IC50 (at human CSNK1A1; in test [1]) were 0.0039 µM and 1.8 µM, respectively.
For the compound `Cc1cn(C)c(=O)c2c(Nc3ccccc3)c(-c3ccnc(NC(=O)C(CC(F)F)c4ccc(F)cc4)c3)[nH]c12` (single isomer, unassigned) [Example 12, N-[4-(3-anilino-5,7-dimethyl-4-oxo-4,5-dihydro-1H-pyrrolo[3,2-c]pyridin-2-yl)pyridin-2-yl]-4,4-difluoro-2-(4-fluorophenyl)butanamide], the figures for the IC50 (on human CSNK1A1; in test [1]) were 0.18 µM and more than 20 µM, respectively.
The matching figures for `Cn1ccc2[nH]c(-c3ccnc(NC(=O)C(CC(F)F)c4ccc(F)cc4)c3)c(Nc3ccccc3)c2c1=O` (single isomer, unassigned) [Example 29, N-[4-(3-anilino-5-methyl-4-oxo-4,5-dihydro-1H-pyrrolo[3,2-c]pyridin-2-yl)pyridin-2-yl]-4,4-difluoro-2-(4-fluorophenyl)butanamide]: 0.05 µM and more than 20 µM.
The matching figures for `Cc1cn(C)c(=O)c2c(Nc3ccccc3)c(-c3ccnc(NC(=O)C(C)c4ccc(F)cc4)c3)[nH]c12` (racemic) [Example 39, N-[4-(3-anilino-5,7-dimethyl-4-oxo-4,5-dihydro-1H-pyrrolo[3,2-c]pyridin-2-yl)pyridin-2-yl]-2-(4-fluorophenyl)propanamide]: 0.051 µM and 18 µM.
For the compound `CCC1CNC(=O)c2c1[nH]c(-c1ccnc(NC(=O)Cc3ccc(F)cc3)c1)c2Nc1ccccc1` (single isomer, unassigned) [Example 3, N-{4-[3-anilino-7-ethyl-4-oxo-4,5,6,7-tetrahydro-1H-pyrrolo[3,2-c]pyridin-2-yl]pyridin-2-yl}-2-(4-fluorophenyl)acetamide], the results for the IC50 (on human CSNK1A1; in test [1]) were 0.0038 µM and 0.32 µM, respectively.
In the same order, the values of `CC1CN(C)C(=O)c2c1[nH]c(-c1ccnc(NC(=O)Cc3ccc(F)cc3)c1)c2Nc1ccccc1` (single isomer, unassigned; (-)) [Example 7, (−)-N-{4-[3-anilino-5,7-dimethyl-4-oxo-4,5,6,7-tetrahydro-1H-pyrrolo[3,2-c]pyridin-2-yl]pyridin-2-yl}-2-(4-fluorophenyl)acetamide] are 0.0055 µM and 1.3 µM.
In the same order, the values of `CN1CC(CC(F)(F)F)c2[nH]c(-c3ccnc(NC(=O)C(CC(F)F)c4ccc(F)cc4)c3)c(Nc3cscn3)c2C1=O` (single isomer, unassigned) [Example 53, (2R or S)-4,4-difluoro-2-(4-fluorophenyl)-N-{4-[(7R or S)-5-methyl-4-oxo-3-[(1,3-thiazol-4-yl)amino]-7-(2,2,2-trifluoroethyl)-4,5,6,7-tetrahydro-1H-pyrrolo[3,2-c]pyridin-2-yl]pyridin-2-yl}butanamide] are 0.021 µM and more than 20 µM.
For `CCC1CNC(=O)c2c1[nH]c(-c1ccnc(NC(=O)Cc3ccc(F)cc3)c1)c2Nc1ccccc1` (single isomer, unassigned) [Example 2, N-{4-[3-anilino-7-ethyl-4-oxo-4,5,6,7-tetrahydro-1H-pyrrolo[3,2-c]pyridin-2-yl]pyridin-2-yl}-2-(4-fluorophenyl)acetamide], the IC50 on human CSNK1A1 is 0.0033 µM; in test [1], 0.19 µM.
Regarding `Cn1ccc2[nH]c(-c3ccnc(NC(=O)C(CC(F)F)c4ccc(F)cc4)c3)c(Nc3ccccc3)c2c1=O` (racemic) [Example 28, N-[4-(3-anilino-5-methyl-4-oxo-4,5-dihydro-1H-pyrrolo[3,2-c]pyridin-2-yl)pyridin-2-yl]-4,4-difluoro-2-(4-fluorophenyl)butanamide], the IC50 turned out to be 0.0052 µM at human CSNK1A1 and 12 µM in test [1].
As to `C[C@H](C(=O)Nc1cc(-c2[nH]c3ccn(C)c(=O)c3c2Nc2ccccc2)ccn1)c1ccc(F)cc1` (single isomer, unassigned) [Example 26], the IC50 on human CSNK1A1 was 0.0059 µM; in test [1], more than 20 µM.
For `Cn1cc(CC(F)(F)F)c2[nH]c(-c3ccnc(NC(=O)Cc4ccc(F)cc4)c3)c(Nc3ccccc3)c2c1=O` [Example 34, N-{4-[3-anilino-5-methyl-4-oxo-7-(2,2,2-trifluoroethyl)-4,5-dihydro-1H-pyrrolo[3,2-c]pyridin-2-yl]pyridin-2-yl}-2-(4-fluorophenyl)acetamide], the IC50 came to 0.0043 µM on human CSNK1A1 and 0.02 µM in test [1].
